Results published in US12479839B2, “Crystalline form of ATR inhibitor and use thereof” (Wuxi Biocity Biopharmaceutics Co., Ltd., priority 2019, dated 2025).

Columns and labels:
[1] = In vivo pharmacokinetic study in female Balb/c Nude mice; parameters: species or system mouse
Method: Experimental procedure: The purpose of this study is to determine the pharmacokinetic parameters of the compound and calculate its gavage bioavailability in female Balb/c Nude mice.
Six female Balb/c Nude mice were used in this project, three mice were injected intravenously, with the dosage of 1 mg/kg, where plasma samples at 0 h (before administration) and at 0.0833, 0.25, 0.5, 1, 2, 4, 6, 8 and 24 h after administration were collected, and the other three mice were administered intragastrically with the dose of 10 mg/kg or 25 mg/kg, where plasma samples at 0 h (before administration) and at 0.5, 1, 2, 3, 4, 6, 8, 24 h after administration were collected. LC-MS/MS analysis was performed on the collected samples and data were collected. The collected analysis data were calculated with Phoenix WinNonlin 6.2.1 software for relevant pharmacokinetic parameters.
Note: C0 (nM) is the concentration of the drug in the body at 0 min; Cl (mL/min/kg) is the clearance rate of the drug in the body; Vdss (L/kg) is the volume of distribution of the drug in the body; T1/2 (h) is the half-life; AUC0-t (nM·h) is the amount of drug exposure in the body; Cmax (nM) is the highest concentration of the drug in the body; F is the bioavailability.

[2] = Solid stability tests of Crystal Form B under high temperature, high humidity and light conditions; assay type: physicochemical
Description: The samples were sealed with aluminum foil paper, and some small holes were pierced in the aluminum foil paper to ensure that the sample can fully contact with the ambient air. The samples were placed in a constant temperature and humidity or light box under different humidity conditions. […] The test results were compared with the initial test results on day 0.

[3] = Solid stability test of Crystal Form A under high temperature and high humidity; assay type: physicochemical; details: 40° C./75% humidity
Method: Two samples of Crystal Form A were weighed in parallel, each about 100 mg, placed on the bottom of a glass sample bottle and spread into a thin layer. The samples were sealed with aluminum foil paper, and some small holes were pierced in the aluminum foil paper to ensure that the sample can fully contact with the ambient air. The samples were placed at a constant temperature and humidity box under the condition of 40° C./75% humidity. The samples under the above conditions were sampled and tested on day 30, and the test results were compared with the initial test result on day 0.

[4] = Solid physical stability tests of Crystal Form A under different temperature, humidity and light conditions; assay type: physicochemical; details: Day 10, XRPD
Method: Four samples of Crystal Form A were weighed in parallel, each about 100 mg, placed on the bottom of a glass sample bottle and spread into a thin layer. The samples were sealed with aluminum foil paper, and some small holes were pierced in the aluminum foil paper to ensure that the sample can fully contact with the ambient air. Four prepared samples were placed in 25° C./92.5% relative humidity, 60° C., 40° C./75% and light conditions, respectively, and the physical stability of the samples on the 10th day was investigated. At the same time, a sample of about 100 mg of Crystal Form A was weighed separately, placed on the bottom of the glass sample bottle, sealed with a screw cap, and stored at −20° C. for use as control. On the 10th day, all the samples were taken out, returned to room temperature, and the appearance changes of the samples were observed. XRPD was used to detect the sample crystal forms. By comparing the accelerated samples with the control sample, the solid physical stability of Crystal Form A of the compound of formula (I) was determined.

## Cc1cnn(C)c1-c1cc(N2CCOC[C@H]2C)nc(-c2cc(CO)cc3[nH]ccc23)n1 [Compound of formula (1)]
[1]; 10 mg/kg intragastric
  F: 129.0%
[1]; mouse, plasma, 1 mg/kg IV, read-out: AUC04
  AUC: 1.09 µM·h

## Cc1cnn(C)c1-c1cc(N2CCOC[C@H]2C)nc(-c2cc(CO)cc3[nH]ccc23)n1 [Crystal Form B]
[2]; 25° C./65% RH, 3 month
  Content: 98.4%
  Crystal Form: Crystal Form B
  Total impurity: 0.45%
[2]; 25° C./65% RH, 6 month
  Content: 99.8%
  Crystal Form: Crystal Form B
  Total impurity: 0.43%
[2]; 25° C./65% RH, day 0
  Content: 99.0%
  Crystal Form: Crystal Form B
  Total impurity: 0.42%
[2]; 25° C./92.5% RH, day 0
  Content: 99.0%
  Crystal Form: Crystal Form B
  Total impurity: 0.42%
[2]; 25° C./92.5% RH, day 5
  Content: 98.9%
  Crystal Form: Crystal Form B
  Total impurity: 0.44%
[2]; 25° C./92.5% RH, day 10
  Content: 100.1%
  Crystal Form: Crystal Form B
  Total impurity: 0.41%
[2]; 25° C./92.5% RH, day 30
  Content: 99.7%
  Crystal Form: Crystal Form B
  Total impurity: 0.41%
[2]; 40° C./75% RH, 1 month
  Content: 100.6%
  Crystal Form: Crystal Form B
  Total impurity: 0.45%
[2]; 40° C./75% RH, 2 month
  Content: 100.4%
  Crystal Form: Crystal Form B
  Total impurity: 0.42%
[2]; 40° C./75% RH, 3 month
  Content: 98.8%
  Crystal Form: Crystal Form B
  Total impurity: 0.44%
[2]; 40° C./75% RH, 6 month
  Content: 99.8%
  Crystal Form: Crystal Form B
  Total impurity: 0.43%
[2]; 40° C./75% RH, day 0
  Content: 99.0%
  Crystal Form: Crystal Form B
  Total impurity: 0.42%
[2]; 60° C., day 0
  Content: 99.0%
  Crystal Form: Crystal Form B
  Total impurity: 0.42%
[2]; 60° C., day 5
  Content: 101.5%
  Crystal Form: Crystal Form B
  Total impurity: 0.43%
[2]; 60° C., day 10
  Content: 101.6%
  Crystal Form: Crystal Form B
  Total impurity: 0.39%
[2]; 60° C., day 30
  Content: 99.4%
  Crystal Form: Crystal Form B
  Total impurity: 0.41%
[2]; light, day 0
  Content: 99.0%
  Crystal Form: Crystal Form B
  Total impurity: 0.42%
[2]; light, day 5
  Content: 101.0%
  Crystal Form: Crystal Form B
  Total impurity: 0.44%
[2]; light, day 10
  Content: 100.7%
  Crystal Form: Crystal Form B
  Total impurity: 0.42%

## Cc1cnn(C)c1-c1cc(N2CCOC[C@H]2C)nc(-c2cc(CO)cc3[nH]ccc23)n1 [Crystal Form A]
[3]; day 0
  Appearance: White
  Content: 99.61%
  Crystal Form: Form A
  Total impurity: 0.39%
[3]; day 30
  Appearance: White
  Content: 99.59%
  Crystal Form: Form A
  Total impurity: 0.45%
[4]; 25° C./92.5% relative humidity (open)
  Crystal Form: Form A
[4]; 40° C./75% relative humidity (open)
  Crystal Form: Form A
[4]; 60° C. (open)
  Crystal Form: Form A
[4]; light
  Crystal Form: Form A
[4]; −20° C. sealed (control)
  Crystal Form: Form A
